The source of these data is patent US7868026B2, “Therapeutic compounds” (Pfizer Inc., priority 2005, dated 2011).

Holding throughout (assay type): biochemical
Assay [1] concerns the target T1, CYP3A4 (Homo sapiens, UniProt P08684). Description: Determination of compound Kiapp against recombinant CYP3A4 enzyme (BFC fluorescent substrate). The method in brief: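 Recombinant CYP3A4 (5.5 or 8 nM, with or without b5 depending on source) pre-incubated with inhibitor ≥30 min at room temperature in 100 mM sodium phosphate pH 7.0, 5 mM TCEP, 2% DMF. Reaction started with 200 uM NADPH and 5 uM BFC; initial fluorescence rates over 5 min fitted to Morrison tight-binding (non-partial) or Szedlacsek (partial) equations for Kiapp.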

Assay [2] has as its target T1, CYP3A4. Description: Determination of IC50 against CYP3A4 by measurement of inhibition of testosterone metabolism (human liver microsomes, 6-β-OH-testosterone by LC-MS/MS). Set-up: 0.1 mg/mL human liver microsomes. The following applies: read-out: IC50 (Testo.). The method in brief:
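Human liver microsomes (0.1 mg/mL) incubated with 25 μM testosterone and 1 mM NADPH in 100 mM potassium phosphate, pH 7.4, for eight minutes. 6-β-OH-testosterone measured by LC-MS/MS in MRM mode against an internal standard and quantified from a metabolite standard curve.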
(In general: Liver microsomes are vesicles of endoplasmic reticulum, rich in cytochrome P450 enzymes.)

In assay [3] the target is T1, CYP3A4. The assay can be described thus: Determination of IC50 against CYP3A4 by measurement of inhibition of midazolam metabolism (human liver microsomes, 1-hydroxymidazolam by LC-MS/MS). Set-up: 0.1 mg/mL human liver microsomes. The settings on record: 2 μM midazolam, 0.1 mg/mL human liver microsomes. The method in brief: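 Human liver microsomes (0.1 mg/mL) incubated 8 min with 2 μM midazolam and 1 mM NADPH in 100 mM potassium phosphate, pH 7.4. 1-Hydroxymidazolam quantified by LC-MS/MS (MRM) as peak area ratio to internal standard against a metabolite standard curve.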

The mark [4] stands for this setting: Baculo. enzyme preparation, read-out: Kiapp (BFC, Baculo.).
[5] abbreviates: Super. enzyme preparation, read-out: Kiapp (BFC, Super.).

Read-outs that look alike come from different tables or passages of the source.

T1 sequence (P08684 whole entry): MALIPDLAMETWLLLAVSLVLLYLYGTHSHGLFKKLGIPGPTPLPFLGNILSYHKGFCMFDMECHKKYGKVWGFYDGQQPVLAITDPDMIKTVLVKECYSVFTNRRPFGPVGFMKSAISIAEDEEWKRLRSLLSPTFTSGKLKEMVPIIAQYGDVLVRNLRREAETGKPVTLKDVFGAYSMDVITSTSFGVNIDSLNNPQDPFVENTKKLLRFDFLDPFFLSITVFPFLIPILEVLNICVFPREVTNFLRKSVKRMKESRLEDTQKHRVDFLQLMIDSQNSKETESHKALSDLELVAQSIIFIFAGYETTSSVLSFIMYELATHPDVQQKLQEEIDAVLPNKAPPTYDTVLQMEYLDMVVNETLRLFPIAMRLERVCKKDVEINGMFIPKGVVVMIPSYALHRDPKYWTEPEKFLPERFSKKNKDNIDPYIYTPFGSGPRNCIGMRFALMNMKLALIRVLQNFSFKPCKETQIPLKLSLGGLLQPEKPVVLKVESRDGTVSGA

By IC50 is commonly meant the midpoint of a concentration-inhibition curve. As for `CCCCN(C)C(=O)c1ccccc1S(=O)(=O)Nc1cnccc1OCC` [Example 274, N-butyl-2-{[(4-ethoxypyridin-3-yl)amino]sulfonyl}-N-methylbenzamide], the Ki is 70.1 nM on CYP3A4 [1] (setting [4]) and 8.85 nM at CYP3A4 [1] (setting [5]). Also, the values for the IC50 on CYP3A4 [2] and on CYP3A4 [3] were 46 nM and 25 nM, respectively.

For `COc1ccncc1NS(=O)(=O)c1ccccc1C(=O)NCCc1ccccc1C` [Example 275, 2-{[(4-methoxypyridin-3-yl)amino]sulfonyl}-N-[2-(2-methylphenyl)ethyl]benzamide], the results for the Ki on CYP3A4 [1] (setting [4]) and at CYP3A4 [1] (setting [5]) were 42.9 nM and 3.76 nM, respectively. Also, the IC50 at CYP3A4 [2] was determined as 7 nM; on CYP3A4 [3] it was 9 nM.

In the case of `COc1ccncc1NS(=O)(=O)c1ccccc1C(=O)NC(C)C1CC1` (centres unmarked) [Example 276, N-(1-cyclopropylethyl)-2-{[(4-methoxypyridin-3-yl)amino]sulfonyl}benzamide], the values for the Ki on CYP3A4 [1] (setting [4]) and on CYP3A4 [1] (setting [5]) were 563 nM and 62.9 nM, respectively. The IC50 was determined as 134 nM at CYP3A4 [2] and 71 nM on CYP3A4 [3].

With `COc1ccncc1NS(=O)(=O)c1ccccc1C(=O)NCCC(C)C` [Example 277, 2-{[(4-methoxypyridin-3-yl)amino]sulfonyl}-N-(3-methylbutyl)benzamide], the Ki at CYP3A4 [1] (setting [4]) was 459 nM; at CYP3A4 [1] (setting [5]), 47.9 nM. Besides, the 50% inhibitory concentration (IC50) at CYP3A4 [2] came out at 65 nM; at CYP3A4 [3], 53 nM.

`CCCCCN(C)C(=O)c1ccccc1S(=O)(=O)Nc1cnccc1OC` [Example 278, 2-{[(4-methoxypyridin-3-yl)amino]sulfonyl}-N-methyl-N-pentylbenzamide]: the results for the Ki on CYP3A4 [1] (setting [4]) and on CYP3A4 [1] (setting [5]) were 131 nM and 11.9 nM, respectively. Moreover, the IC50 at CYP3A4 [2] worked out at 66 nM; on CYP3A4 [3], 31 nM.

Turning to `COc1ccncc1NS(=O)(=O)c1ccccc1C(=O)N(C)C(C)C` [Example 279, N-isopropyl-2-{[(4-methoxypyridin-3-yl)amino]sulfonyl}-N-methylbenzamide], the Ki was above 1000 nM on CYP3A4 [1] (setting [4]) and 95.2 nM at CYP3A4 [1] (setting [5]). Further, the IC50 at CYP3A4 [2] was 337 nM; at CYP3A4 [3] it was 123 nM.

For `CCCCN(C)C(=O)c1ccccc1S(=O)(=O)Nc1cnccc1OC` [Example 280, N-butyl-2-{[(4-methoxypyridin-3-yl)amino]sulfonyl}-N-methylbenzamide], the Ki was found to be 400 nM on CYP3A4 [1] (setting [4]) and 52.5 nM on CYP3A4 [1] (setting [5]). Further, the IC50 on CYP3A4 [2] worked out at 95 nM; at CYP3A4 [3] it was 39 nM.

As for `Cc1cncc(NS(=O)(=O)c2ccccc2C(=O)N(C)C(C)C)c1` [Example 281, N-isopropyl-N-methyl-2-{[(5-methylpyridin-3-yl)amino]sulfonyl}benzamide], the Ki worked out at 468 nM on CYP3A4 [1] (setting [4]) and 42.6 nM at CYP3A4 [1] (setting [5]). The IC50 on CYP3A4 [2] was 65 nM; at CYP3A4 [3], 31 nM.

In the case of `COc1cncc(NS(=O)(=O)c2ccccc2C(=O)N(C)C(C)C)c1` [Example 282, N-isopropyl-2-{[(5-methoxypyridin-3-yl)amino]sulfonyl}-N-methylbenzamide], the Ki on CYP3A4 [1] (setting [4]) is 330 nM; at CYP3A4 [1] (setting [5]), 57.7 nM. For the same molecule, the IC50 at CYP3A4 [2] was found to be 62 nM; at CYP3A4 [3] it was 49 nM.

Turning to `CN(Cc1ccc(F)c(F)c1)C(=O)c1ccccc1S(=O)(=O)Nc1cccnc1` [Example 284, N-(3,4-difluorobenzyl)-N-methyl-2-[(pyridin-3-ylamino)sulfonyl]benzamide], the Ki on CYP3A4 [1] (setting [4]) was 99.8 nM; on CYP3A4 [1] (setting [5]), 14.2 nM. Also, the IC50 on CYP3A4 [2] was 49 nM; on CYP3A4 [3], 15 nM.

Take `COc1cncc(NS(=O)(=O)c2ccccc2C(=O)N(C)Cc2ccc(F)c(F)c2)c1` [Example 285, N-(3,4-difluorobenzyl)-2-{[(5-methoxypyridin-3-yl)amino]sulfonyl}-N-methylbenzamide]: the Ki at CYP3A4 [1] (setting [4]) amounted to 26 nM; on CYP3A4 [1] (setting [5]) it was 7.24 nM. Also, the figures for the IC50 on CYP3A4 [2] and at CYP3A4 [3] were 28 nM and 19 nM, respectively.
